According to US6797728B2, “Use of intracellular calcium chelators to increase surfactant secretion in the lungs” (Thomas Jefferson University, priority 2000, dated 2004):
Like-named read-outs stand apart in the source and are kept apart here.

Experiments:
alveolar type II cells [1] = assay: Surfactant secretion assay (secretion of 3H-labeled phospholipid by type II cells); format: cell-based, rat; settings: for effect of calcium depletion on secretagogue-stimulated PL secretion: cells in Ca2+-free medium overnight and during the 2 h assay, ATP 500 μM, TG 10 μM, Io 1 μM, PMA 50 ng/ml, BAPTA-AM 25 μM; for effect of re-adding calcium after overnight depletion on secretagogue-induced PL secretion: Ca2+ added back to 1.64 mM at start of the 2 hr secretion assay; for effect of removing extracellular Ca2+ during the assay on secretagogue-elicited surfactant secretion: normal medium overnight, Ca2+-free medium for the 2 h assay, FIG. 4; for % PL secreted: BAPTA 25 μM, SP-A 100 ng/ml, alone or together, percentage of 3H-labeled phospholipid secreted, no additions 8.33
Procedure: Freshly isolated type II cells were prepared according to standard techniques, originally described by Dobbs (Dobbs, et al, AM. Rev. Respir. Dis. 134, 141-145, 1986), and later modified by Sen and Chander (Sen and Chander, Biochem. J. 298: 681-687, 1994). The use of these techniques has been previously reported. (Strayer, et al, Ex. Cell Res. 226: 90-97, 1996; Strayer, et al, Rec. Signal Transd. 7: 111-120, 1997). Briefly, lungs of anesthetized rats were cleared of blood and treated with elastase endotracheally (Worthington Biochemical, Freehold, N.J.) to obtain free cells. The cells were separated from lung debris and plated on bacteriological plates coated with normal rat IgG (Sigma Chemical Co., St. Louis, Mo.). After 1 hr, free cells were collected by panning, pelleted, and resuspended (0.8×10^6 cells/ml) in minimum essential medium (MEM)+10% fetal bovine serum (FCS, Life Technologies, Gaithersburg, Md.).
Secretion studies were performed as described by Sen and Chander. (Sen and Chander, Biochem. J. 298: 681-687, 1994). Briefly, 0.8×10^6 alveolar type II cells were cultured for 18 h in MEM with 10% FBS+0.5 μCi of [methyl-^3H]-choline (Amersham, Arlington Heights, Ill.) to label cellular phospholipids (PL) metabolically. Cells were washed to remove non-adherent cells and unincorporated radioactivity. After replacing this medium with fresh MEM, plates were incubated for 15 min. SP-A (100 ng/ml) was added to selected plates, followed by incubation for an additional 15 min.; secretagogues were then added at the appropriate concentrations [control (no addition), ATP (500 μM), TG (10 μM), ionomycin (1 μM), PMA (50 ng/ml)]. At this point (t=0) in each experiment, some samples were removed for analysis of secreted labeled lipids to establish a baseline. Incubation proceeded for an additional 2 h for all other plates. Following this incubation, media were removed and centrifuged (15 min., 300×g) to pellet cells that detached during incubation. These cells were later pooled with those recovered from the plates. Lipids from both media and plates were extracted (Sen and Chander, Biochem. J. 298: 681-687, 1994) after adding [methyl-^14C]-DPPC (Amersham, Arlington Heights, Ill.) as a recovery standard, and egg phosphatidylcholine (Sigma Chemical Co., St. Louis, Mo.) as a carrier lipid. Recovered lipids were dissolved in Scintiverse II fluid (Fisher Scientific, Pittsburgh, Pa.) and the radioactivity of these lipid extracts measured with a scintillation counter (Beckman Instruments, Fullerton, Calif.). ^3H-labeled phospholipid recovery was normalized to recovery of [methyl-^14C]-DPPC. Phospholipid secretion was determined as percent secretion=(cpm in lipids recovered from media×100)/(cpm in lipids recovered from media and plates).

[2] = read-out: affinity of BAPTA for calcium; cited from earlier work
[3] = tested on: [Ca^2+]l in type II cells; assay: ER (lumenal) calcium concentration, fura2ff fluorescence with Mn2+ quench; format: cell-based, rat; settings: fura2ff 340/380 nm ratio, Mn2+ added, FIG. 7
Procedure: Type II cells were prepared as described and plated on glass coverslips that had been pretreated with poly-L-lysine (Sigma, 0.01%, 20° C., 15 mins). After incubation overnight at 37° C. in MEM-10% FCS, the cells were washed three times with serum-free MEM and once with loading buffer (121 mM NaCl, 4.7 mM KCl, 1.2 mM KH2P04, 1.2 mM MgSO4, 2% BSA, 10 mM glucose, 20 mM HEPES, 2 mM CaCl2). The cells were loaded in loading buffer containing 10 μM Fura-2FF(AM) (Teflabs, Austin, Tex.) and 0.06% Pluronic Acid (Molecular Probes, Inc.) for two hours with shaking at 37° C. The coverslip was washed in calcium-free imaging buffer (121 mM NaCl, 4.7 mM KCl, 1.2 mM KH2PO4, 1.2 mM MgSO4, 10 mM glucose, 20 mM HEPES), inserted into a thermostatically regulated chamber (37° C.), and mounted on an inverted fluorescence microscope in 1 ml of imaging buffer. Fluorescence imaging following excitation at 340 nm and 380 nm was performed (supra).
During imaging MnCl2 was added at time=0 to a final concentration of 500 μM followed by either SP-A, ionomycin, or TG (final concentrations 100 ng/ml, 1 μM and 4 μM respectively).
Decreases in [Ca^2+]l, rather than increases in [Ca^2+]i, were hypothesized to be the critical regulator of surfactant secretion by all secretagogues, with the exception of PMA. This theory predicts that BAPTA-AM, and other calcium-dependent secretagogues, would decrease [Ca^2+]l, but that PMA would not. Thus, type II cells were loaded with fura2ff. This fluorophore has a much lower affinity for calcium in the μM range than fura2 does, and is therefore used to assess changes in [Ca^2+]l. Type II cells were also treated with Mn^2+, which binds cytoplasmic fura2ff and prevents its binding to Ca^2+. (Dorn, et al, Br. J. Pharmacol. 97: 163-170, 1989; Kuroki, et al, Biochem. J. 115: 115-119, 1991; Miyata, et al, Am. J. Physiol. 261: H1123-H1134, 1991). Any changes in the lumenal free calcium concentration were measured as changes in the ratio of fura2ff excitation at 340 nm to that at 380 nm. […] PMA had no effect.

[4] = tested on: [Ca^2+]i in type II cells; assay: Cytosol free calcium concentration, fura2 digital imaging fluorescence microscopy; format: cell-based, rat; settings: fura2 340/380 nm ratio, compared to mock-treated cells
Procedure: 10^6 freshly isolated type II cells were added to 35 mm tissue culture plates, each containing a polylysine (Sigma Chemical Co.) coated 25 mm diameter coverslip and incubated (37° C., 5% CO2) for at least 2 hr. Twenty min before use, Fura2/AM (Molecular Probes) was added (final concentration, 3 μM) to each coverslip. After Fura2 loading, the coverslips were washed with cell incubation buffer (121 mM NaCl, 4.7 mM KCl, 1.2 mM KH2PO4, 1.2 mM MgSO4, 2 mM CaCl2, 10 mM glucose, 5 mM NaHCO3, 0.2% BSA, and 10 mM HEPES/NaOH, pH 7.4) and inserted into a thermostatically regulated chamber (37° C.). Cell incubation buffer was added and the whole assembly placed on the stage of a Nikon Diaphot inverted microscope. At appropriate times (see infra), secretagogues in the appropriate concentration (see supra) were added. Fluorescence images of the cells were collected by exciting the cells alternately at 340 and 380 nm and measuring emission at 500 nm using a charge-coupled device camera (Photometrics, Inc.) as described previously. (Rooney, et al, Biol. Chem 264: 17131-17141, 1989). Image acquisition and analysis were done with Macintosh computers running customized image-processing software. The ratio (340/380) of Fura2 excitation was calibrated to [Ca^2+]i as described. (Rooney, et al, Biol. Chem 264: 17131-17141, 1989; Grynkiewicz, et al, J. Biol. Chem. 260: 3440-3450, 1985).

alveolar type II cells [5] = assay: Surfactant secretion assay (secretion of 3H-labeled phospholipid by type II cells); format: cell-based, rat; settings: within 4 hours of treatment; control cells release about 7%
type II cells [6] = tested on: type II cells
Procedure: (§1) Viability of type II cells was tested both by trypan blue exclusion, and by tetrazolium/formazan assay (Promega Corp., Madison, Wis.), which measures mitochondrial dehydrogenases. These enzymes are only present in active form in living cells and are absent in nonviable cells. […] For such studies, an assay solution containing the tetrazolium compound (3-(4,5-dimethylthiazol-2-yl)-5-(3-carboxymethoxyphenyl)-2-(4-sulfonyl)-2H-tetrazolium, inner salt; MTS) and an electron-coupling reagent (phenazine methosulfate; PMS) in MEM is added to the cells. […] Correction was made for the small effect of BAPTA itself on this reaction by running a parallel assay on plates with no cells.
(§2) In these studies, cellular viability was determined in two ways. Viable cells enumerated by counting trypan blue-excluding cells. […] In addition, cellular viability in BAPTA-AM-treated cultures was measured using the tetrazolium/formazan assay for mitochondrial dehydrogenase.

type II cells [7] = tested on: type II cells; remark: listed apart in the source
Procedure: as §1, §2

type II cells [8] = assay: Type II cell viability by trypan blue exclusion; settings: at the concentrations of FIG. 2; compared to each other and to untreated type II cells
Procedure: as §1, §2

Row | Compound | effect of calcium depletion on secretagogue-stimulated PL secretion (alveolar type II cells [1]) | effect of re-adding calcium after overnight depletion on secretagogue-induced PL secretion (alveolar type II cells [1]) | effect of removing extracellular Ca2+ during the assay on secretagogue-elicited surfactant secretion (alveolar type II cells [1]) | effect on lumenal free calcium concentration [Ca^2+]l [3] | also measured
1 | Nc1ncnc2c1ncn2[C@@H]1O[C@H](COP(=O)(O)OP(=O)(O)OP(=O)(O)O)[C@@H](O)[C@H]1O [ATP] | prevented |  |  |  | 
2 | O=C(O)CN(CC(=O)O)c1ccccc1OCCOc1ccccc1N(CC(=O)O)CC(=O)O [BAPTA, 1,2-bis(2-aminophenoxy)ethane-N,N,N, N-tetraacetic acid] | prevented BAPTA secretagogue activity | restored | not significantly altered | decreased [Ca^2+]l | Kd [2]: 160 nM; surfactant secretion at 5 μM BAPTA (alveolar type II cells [1]; dose-response studies, concentration range of 5 μM): below the threshold; concentrations at which BAPTA stimulates surfactant secretion (powerful secretagogue) (alveolar type II cells [1]; dose-response, FIG. 2): 25 to 100 µM
3 | CC(=O)OCOC(=O)CN(CC(=O)OCOC(C)=O)c1ccccc1OCCOc1ccccc1N(CC(=O)OCOC(C)=O)CC(=O)OCOC(C)=O [BAPTA-AM, 1,2-bis(2-aminophenoxy)ethane-N,N,N, N-tetraacetic acid acetoxymethyl ester] |  |  |  |  | effect on cytosol free calcium concentration [Ca^2+]i [4]: caused [Ca^2+]i to decrease somewhat; stored surfactant released (alveolar type II cells [5]): about ⅔; effect on cell viability (trypan blue-excluding cells) (type II cells [6]): Neither BAPTA-AM nor TPEN at these concentrations had any effect on cell viability; % PL secreted (alveolar type II cells [1]): 15.47%; viability of treated type II cells (tetrazolium/formazan) (type II cells [7]): does not differ from that of control cells
4 | C[C@H](CCC(=O)O)C[C@H](C)C[C@H](C)C(=O)/C=C(\O)[C@H](C)C[C@H](C)C/C=C/[C@@H](C)[C@@H](O)[C@@H](C)[C@@H](O)C[C@@H]1CC[C@@](C)([C@H]2CC[C@@](C)([C@@H](C)O)O2)O1 [Io, ionomycin] | prevented | restored | not significantly altered | decreased [Ca^2+]l | 
5 | CCCCCCCCCCCCCC(=O)O[C@@H]1[C@@H](C)[C@@]2(O)[C@@H](C=C(CO)C[C@]3(O)C(=O)C(C)=C[C@@H]23)[C@@H]2C(C)(C)[C@]12OC(C)=O [PMA, phorbol 12-myristate 13-acetate] | did not alter | increased PMA-induced secretion, but this effect was not statistically significant | Statistically significant but small decreases | no effect | effect on cytosol free calcium concentration [Ca^2+]i [4]: did not alter [Ca^2+]i
6 | C/C=C(/C)C(=O)O[C@H]1C(C)=C2[C@H]([C@@H]1OC(=O)CCCCCCC)[C@@](C)(OC(C)=O)C[C@H](OC(=O)CCC)[C@@]1(O)[C@H]2OC(=O)[C@@]1(C)O [TG, thapsigargin] | partially inhibited | restored | Statistically significant but small decreases |  | 
7 | c1ccc(CN(CCN(Cc2ccccn2)Cc2ccccn2)Cc2ccccn2)nc1 [TPEN, N,N,N′,N′-tetrakis-(2-pyridylmethyl) ethylenediamine] |  |  |  |  | effect on cell viability (trypan blue-excluding cells) (type II cells [8]): Neither BAPTA-AM nor TPEN at these concentrations had any effect on cell viability; secretagogue activity (alveolar type II cells [1]; TPEN up to 150 μM, FIG. 2): no secretagogue activity
8 | surfactant-associated protein-A [SP-A] |  |  |  | increased [Ca^2+]l | % PL secreted (alveolar type II cells [1]): 4.98%; BAPTA-induced surfactant secretion after SP-A pretreatment (alveolar type II cells [1]; SP-A pretreatment, then BAPTA-AM loading concentration 25 μM, versus cells not exposed to SP-A): significantly less surfactant secretion
